Values of other authors, collected in patent US12121591B2, “Sulfur-containing ionizable lipids for the delivery of nucleic acids and other therapeutic agents” (NanoVation Therapeutics Inc., priority 2022, dated 2024).

Settings: delivery of siRNA, relative to KC2

In the case of `CCCCC/C=C\C/C=C\CCCCCCCCC(CCCCCCCC/C=C\C/C=C\CCCCC)OC(=O)CCCN(C)C` [MC3], the “siRNA required, times less than KC2” value is listed as “about 3 times”.
